Measurements taken from ChEMBL document CHEMBL1159204, “Limonoids showing selective toxicity to DNA repair-deficient yeast and other constituents of Trichilia emetica” (J Nat Prod, 1998).
Converted amounts (≈) assume the structure as drawn.

Columns and labels:
[1] = tested on: Saccharomyces cerevisiae; assay: DNA damaging activity against DNA repair-deficient RS 322YK (rad 52Y) yeast assessed as drug level required to produce 12 mm zone of inhibition; assay type: functional
[2] = tested on: Vero; assay: Cytotoxicity against african green monkey Vero cells; assay type: cell-based; conditions: Chlorocebus sabaeus
[3] = tested on: Saccharomyces cerevisiae; assay: DNA damaging activity against RS 188N (RAD+) yeast assessed as drug level required to produce 12 mm zone of inhibition; assay type: functional

SMILES | IC12 [1] [µg/mL] | IC50 [2] [µg/mL] | IC12 [3] [µg/mL]
C=C1[C@@H]([C@@]2(C)[C@@H](OC(C)=O)C[C@@]3(O)OC[C@](C)(O3)[C@@H]2CC(=O)OC)[C@@H](OC=O)[C@H](OC(=O)C(O)C(C)CC)[C@@]2(C)[C@H](c3ccoc3)CC(=O)[C@]12O (stereo not given in full) | 0.9 | 12 (≈ 16.6 µM) | 100
CC[C@@]1(O)C(=O)OCc2c1cc1n(c2=O)Cc2cc3ccccc3nc2-1 [CAMPTOTHECIN] | 0.6 |  | 110
